As usually defined, the IC50 is the point on the concentration scale where inhibition reaches its midpoint. Higher therefore signals lower potency.

We go through 20 molecules from patent US20260158009A1 (GENZYME CORPORATION, priority 2023, published 2026).

The target of assay [1] is T1, hRIPK1 (aa 1-375) fusion protein (Homo sapiens, UniProt Q13546).
T1 construct: hRIPK1 (aa 1-375) fusion protein
T1 sequence (Q13546 1-375): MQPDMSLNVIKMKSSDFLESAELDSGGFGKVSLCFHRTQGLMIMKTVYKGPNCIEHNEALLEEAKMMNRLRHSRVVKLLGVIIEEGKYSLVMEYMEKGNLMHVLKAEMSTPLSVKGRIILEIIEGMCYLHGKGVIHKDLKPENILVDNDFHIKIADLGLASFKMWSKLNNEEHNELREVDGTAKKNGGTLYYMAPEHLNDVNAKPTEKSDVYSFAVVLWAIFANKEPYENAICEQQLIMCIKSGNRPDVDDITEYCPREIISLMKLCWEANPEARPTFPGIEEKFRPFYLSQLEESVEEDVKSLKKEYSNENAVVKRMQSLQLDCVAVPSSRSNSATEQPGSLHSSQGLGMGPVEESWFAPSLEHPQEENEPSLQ
The experiment in a line: ADP-Glo kinase assay: catalytic activity of RIPK1 (autophosphorylation, conversion of ATP to ADP). It is filed as biochemical. The method in brief:
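hRIPK1 (aa 1-375) fusion protein (3.6 μg/ml final) was preincubated 30 min at rt with compound (33300-1.69 nM, 1% DMSO), then 50 μM ATP was added for 240 min at rt. ADP from autophosphorylation was measured by ADP-Glo luminescence and curves fitted by nonlinear regression.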
In general terms: ADP-Glo first removes unused ATP, then detects ADP through luciferase.

The test system of the next assay is U937 cells. In words: Cellular assay in U937 cells: activity of RIPK1 inhibitors on TNFα/zVAD.fmk-induced cell death (necroptosis), CellTiter 96 AQueous (MTS) readout. Type of assay: cell-based. The following applies: Homo sapiens, U-937. The method in brief: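 Necroptosis was measured by viable-cell MTS reduction (4 h, absorbance 490 nm) after overnight (18–24 h) 37° C culture. Cell suspensions of U937 cells carried TNFα (100 ng/ml) plus zVAD.fmk (50 μM) before compound was added. A 10-point curve (10 μM–0.26 nM or 1 μM–0.07 nM) was run in duplicate, normalised to the control lacking TNFα/zVAD.fmk.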

Take `N#Cc1cc(F)cc([C@@H]2CCON2C(=O)[C@H]2CC[C@H](Cn3cnc4ccc(F)cc43)CC2)c1` [compound 112, trans-3-fluoro-5-((S)-2-(4-((6-fluoro-1H-benzo[d]imidazol-1-yl)methyl)cyclohexane-1-carbonyl)isoxazolidin-3-yl)benzonitrile]: the concentration for half-maximal inhibition (IC50) in assay [1] was 0.023 µM; in the assay with U937 cells, 0.007 µM.
With `Cc1ccc(C[C@H]2CC[C@H](C(=O)N3OCC[C@H]3c3cnc(C)c(F)c3)CC2)nn1` [compound 388, trans-[(3S)-3-(5-fluoro-6-methylpyridin-3-yl)-1,2-oxazolidin-2-yl]-[4-[(6-methylpyridazin-3-yl)methyl]cyclohexyl]methanone], the IC50 was determined as 0.097 µM in assay [1] and 0.176 µM in the assay with U937 cells.
For `Cc1nc(C[C@H]2CC[C@H](C(=O)N3OCC[C@H]3c3cnccn3)CC2)cs1` [compound 240, trans-[4-[(2-methylthiazol-4-yl)methyl]cyclohexyl]-[(3S)-3-pyrazin-2-ylisoxazolidin-2-yl]methanone], in that order: 0.027 µM and 0.052 µM.
Take `O=C([C@H]1CC[C@H](Cn2cnc3ccc(F)cc32)CC1)N1OCC[C@H]1c1cc(F)cc(F)c1` [compound 113, trans-((S)-3-(3,5-difluorophenyl)isoxazolidin-2-yl)(4-((6-fluoro-1H-benzo[d]imidazol-1-yl)methyl)cyclohexyl)methanone]: the IC50 in assay [1] is 0.024 µM; with U937 cells it was 0.003 µM.
For `CNC(=O)c1cc(F)cc(C[C@H]2CC[C@H](C(=O)N3OCC[C@H]3c3cncc(F)c3)CC2)c1` [compound 160, trans-3-fluoro-5-[[4-[(3S)-3-(5-fluoro-3-pyridyl)isoxazolidine-2-carbonyl]cyclohexyl]methyl]-N-methyl-benzamide], in that order: 0.006 µM and 0.011 µM.
For `Cc1nc2cc(C[C@H]3CC[C@H](C(=O)N4OCC[C@H]4c4cccc(C#N)c4)CC3)ccn2n1` [compound 1, trans-3-[(3S)-2-[4-[(2-methyl-[1,2,4]triazolo[1,5-a]pyridin-7-yl)methyl]cyclohexanecarbonyl]isoxazolidin-3-yl]benzonitrile], in that order: 0.021 µM and 0.029 µM.
For `Cc1nc(C[C@H]2CC[C@H](C(=O)N3OCCC3c3cnc(C)c(F)c3)CC2)cs1` (stereo partly shown) [compound 360], in that order: 0.02 µM and 0.007 µM.
Regarding `O=C1NCc2c(F)cc(C[C@H]3CC[C@H](C(=O)N4OCC[C@H]4c4cnccn4)CC3)cc21` [compound 213, trans-4-fluoro-6-[[4-[(3S)-3-pyrazin-2-ylisoxazolidine-2-carbonyl]cyclohexyl]methyl]isoindolin-1-one], the IC50 in assay [1] turned out to be 0.019 µM; with U937 cells, 0.016 µM.
As to `Cc1ncn(C[C@H]2CC[C@H](C(=O)N3OCC[C@H]3c3cc(F)cc(C#N)c3)CC2)c1C#N` [compound 88, trans-1-((4-((S)-3-(3-cyano-5-fluorophenyl)isoxazolidine-2-carbonyl)cyclohexyl)methyl)-4-methyl-1H-imidazole-5-carbonitrile], the results for the IC50 (in assay [1]; with U937 cells) were 0.052 µM and 0.157 µM, respectively.
On to `Cc1cn2nc(C[C@H]3CC[C@H](C(=O)N4OCC[C@H]4c4cc(F)cc(C#N)c4)CC3)cc(C)c2n1` [compound 290, trans-3-[(3S)-2-[4-[(2,8-dimethylimidazo[1,2-b]pyridazin-6-yl)methyl]cyclohexanecarbonyl]isoxazolidin-3-yl]-5-fluoro-benzonitrile], for which the IC50 worked out at 0.011 µM in assay [1] and 0.004 µM in the assay with U937 cells.
Regarding `Cc1cc(C[C@H]2CC[C@H](C(=O)N3OCC[C@H]3c3cnccn3)CC2)c(F)cn1` [compound 394, trans-[4-[(5-fluoro-2-methylpyridin-4-yl)methyl]cyclohexyl]-[(3S)-3-pyrazin-2-yl-1,2-oxazolidin-2-yl]methanone], the IC50 came out at 0.014 µM in assay [1] and 0.005 µM in the assay on U937 cells.
In the case of `N#Cc1ccc2c(cnn2C[C@H]2CC[C@H](C(=O)N3OCC[C@H]3c3cc(F)cc(F)c3)CC2)c1` [compound 52, trans-1-((4-((S)-3-(3,5-difluorophenyl)isoxazolidine-2-carbonyl)cyclohexyl)methyl)-1H-indazole-5-carbonitrile], the IC50 was 0.015 µM in assay [1] and 0.002 µM in the assay on U937 cells.
As for `O=C([C@H]1CC[C@H](Cc2ccc(C3(O)COC3)cc2)CC1)N1OCC[C@H]1c1ccc(F)cc1` [compound 170, trans-[(3S)-3-(4-fluorophenyl)isoxazolidin-2-yl]-[4-[[4-(3-hydroxyoxetan-3-yl)phenyl]methyl]cyclohexyl]methanone], the IC50 came out at 0.021 µM in assay [1] and 0.015 µM with U937 cells.
As to `NC(=O)c1ccc2cnn(C[C@H]3CC[C@H](C(=O)N4OCC[C@H]4c4cnccn4)CC3)c2c1` [Compound 229, trans-1-[[4-[(3S)-3-pyrazin-2-ylisoxazolidine-2-carbonyl]cyclohexyl]methyl]indazole-6-carboxamide], the IC50 in assay [1] is 0.025 µM; in the assay with U937 cells, 0.078 µM.
For the molecule `COc1cc(C[C@H]2CC[C@H](C(=O)N3OCC[C@H]3c3cnc(C)c(F)c3)CC2)cn2nc(C)nc12` [compound 342, trans-[(3S)-3-(5-fluoro-6-methylpyridin-3-yl)-1,2-oxazolidin-2-yl]-[4-[(8-methoxy-2-methyl-[1,2,4]triazolo[1,5-a]pyridin-6-yl)methyl]cyclohexyl]methanone], the IC50 in assay [1] came out at 0.026 µM; in the assay with U937 cells, 0.008 µM.
On to `NC(=O)c1ccc2cn(C[C@H]3CC[C@H](C(=O)N4OCC[C@H]4c4cnccn4)CC3)nc2c1` [Compound 228, trans-2-[[4-[(3S)-3-pyrazin-2-ylisoxazolidine-2-carbonyl]cyclohexyl]methyl]indazole-6-carboxamide], for which the IC50 in assay [1] was determined as 0.065 µM; in the assay with U937 cells, 0.191 µM.
For `NC(=O)c1ccc2c(ccn2C[C@H]2CC[C@H](C(=O)N3OCC[C@H]3c3cnccn3)CC2)c1` [compound 251, trans-1-[[4-[(3S)-3-pyrazin-2-ylisoxazolidine-2-carbonyl]cyclohexyl]methyl]indole-5-carboxamide], the values for the half-inhibitory concentration (IC50) (in assay [1]; with U937 cells) were 0.008 µM and 0.017 µM, respectively.
With `COc1cnc2ccn(C[C@H]3CC[C@H](C(=O)N4OCC[C@H]4c4cc(F)cc(C#N)c4)CC3)c2c1` [compound 128, trans-3-fluoro-5-[(3S)-2-[4-[(6-methoxypyrrolo[3,2-b]pyridin-1-yl)methyl]cyclohexanecarbonyl]isoxazolidin-3-yl]benzonitrile], the IC50 turned out to be 0.022 µM in assay [1] and 0.004 µM with U937 cells.
Take `Cc1ccc([C@@H]2CCON2C(=O)[C@]2(C)CC[C@@H](Cc3cc(C)c4nc(C)nn4c3)CC2)cn1` [compound 400, trans-[4-[(2,8-dimethyl-[1,2,4]triazolo[1,5-a]pyridin-6-yl)methyl]-1-methylcyclohexyl]-[(3S)-(6-methylpyridin-3-yl)-1,2-oxazolidin-2-yl]methanone]: the IC50 was found to be 0.019 µM in assay [1] and 0.009 µM in the assay on U937 cells.
On to `O=C([C@H]1CC[C@H](Cc2ccc(C3(O)COC3)cc2)CC1)N1OCC[C@H]1c1cc(F)cc(F)c1` [compound 171, trans-[(3S)-3-(3,5-difluorophenyl)isoxazolidin-2-yl]-[4-[[4-(3-hydroxyoxetan-3-yl)phenyl]methyl]cyclohexyl]methanone], for which the IC50 in assay [1] was determined as 0.019 µM; in the assay with U937 cells it was 0.006 µM.
